Laboratory results as given in patent US8247351B2, “Insecticidal compositions having improved effect” (Bayer Cropscience AG, priority 2005, dated 2012).

Columns and labels:
Type in all cases: in vivo
Myzus persicae [1] = assay: Myzus persicae test, Example D (sprayed to runoff, ammonium salt boosting)
Protocol: (§1) Solvent: 7 parts by weight dimethylformamide
(§2) Emulsifier: 2 parts by weight alkylaryl polyglycol ether
(§3) An appropriate preparation of active ingredient is prepared by mixing 1 part by weight of active ingredient with the stated amounts of solvent and emulsifier and diluting the concentrate with water to the desired concentration. For the application with ammonium salts or phosphonium salts, these salts are added in a concentration of 1000 ppm to the spray liquor.
Paprika plants (Capsicum annum) heavily infested by the green peach aphid (Myzus persicae) are treated by being. sprayed to runoff with the preparation of active ingredient at the desired concentration. After the desired time the destruction in % is ascertained. 100% means that all of the animals have been killed; 0% means that no animals have been killed.

Aphis gossypii [2] = assay: Aphis gossypii test, Example E (sprayed to runoff, ammonium salt boosting)
Protocol: as §1, §2
as §3, with “concentrate with emulsifier-containing water to” for “concentrate with water to”
(§4) Cotton plants (Gossypium hirsutum) heavily infested by the cotton aphid (Aphis gossypii) are sprayed to runoff with the preparation of active ingredient at the desired concentration.
(§5) After the desired time the destruction in % is ascertained. 100% means that all of the aphids have been killed; 0% means than no aphids were killed.

Myzus persicae [3] = assay: Myzus persicae test, Example F (sprayed to runoff, ammonium salt plus penetrant)
Protocol: as §1, §2
An appropriate preparation of active ingredient is prepared by mixing 1 part by weight of active ingredient with the stated amounts of solvent and emulsifier and diluting the concentrate with water to the desired concentration. For the application with ammonium salts or phosphonium salts and penetrant (rapeseed oil methyl ester 500 EW), they are each added in a concentration of 1000 ppm to the spray liquor.
After the desired time the destruction in % is ascertained. 100% means that all of the animals have been killed; 0% means that no animals have been killed.

Aphis gossypii [4] = assay: Aphis gossypii test, Example G (sprayed to runoff, ammonium salt plus penetrant)
Protocol: as §1, §2
An appropriate preparation of active ingredient is prepared by mixing 1 part by weight of active ingredient with the stated amounts of solvent and emulsifier and diluting the concentrate with emulsifier-containing water to the desired concentration. For the application with ammonium salts or phosphonium salts and penetrants (rapeseed oil methyl esters 500 EW), they are each added in a concentration of 1000 ppm a.i. to the spray liquor.
as §4, §5

[5] = 4 ppm active ingredient, +AS (1000 ppm)
[6] = 4 ppm active ingredient, no additive
[7] = 20 ppm active ingredient, +AS (1000 ppm)
[8] = 20 ppm active ingredient, no additive
[9] = 4 ppm active ingredient, +RME (1000 ppm)
[10] = 4 ppm active ingredient, +RME +AS (each 1000 ppm)
[11] = 0.8 ppm active ingredient, +AS (1000 ppm)
[12] = 0.8 ppm active ingredient, no additive
[13] = 0.8 ppm active ingredient, +RME (1000 ppm)
[14] = 0.8 ppm active ingredient, +RME +AS (each 1000 ppm)
[15] = 20 ppm active ingredient, +RME (1000 ppm)
[16] = 20 ppm active ingredient, +RME +AS (each 1000 ppm)

| Compound | Degree of destruction/% after 6 days (Aphis gossypii [2]; [5]) | Degree of destruction/% after 6 days (Aphis gossypii [2]; [6]) | Degree of destruction/% after 6 days (Aphis gossypii [2]; [7]) | Degree of destruction/% after 6 days (Aphis gossypii [2]; [8]) | Degree of destruction/% after 6 days (Myzus persicae [3]; [5]) | Degree of destruction/% after 6 days (Myzus persicae [3]; [9]) | Degree of destruction/% after 6 days (Myzus persicae [3]; [10]) | Degree of destruction/% after 6 days (Myzus persicae [3]; [6]) | other results |
| --- | --- | --- | --- | --- | --- | --- | --- | --- | --- |
| Cc1ccc(-c2ccc(Cl)cc2)cc1C1=C(O)C(C)(C)NC1=O [Example I-1-a-3] | 35% | 5% | 80% | 20% | 20% | 10% | 90% | 0% | Degree of destruction/% after 6 days (Myzus persicae [1]; [5]): 90%; Degree of destruction/% after 6 days (Myzus persicae [1]; [6]): 0%; Degree of destruction/% after 6 days (Myzus persicae [1]; [7]): 75%; Degree of destruction/% after 6 days (Myzus persicae [1]; [8]): 60% |
| CO[C@@H]1CCC[C@]2(C1)NC(=O)C(c1c(C)cc(C)cc1C)=C2O [Example I-1-a-6] | 55% | 25% |  |  |  |  |  |  | Degree of destruction/% after 6 days (Aphis gossypii [4]; [5]): 55%; Degree of destruction/% after 6 days (Aphis gossypii [4]; [9]): 50%; Degree of destruction/% after 6 days (Aphis gossypii [4]; [10]): 80%; Degree of destruction/% after 6 days (Aphis gossypii [4]; [6]): 25%; Degree of destruction/% after 6 days (Aphis gossypii [2]; [11]): 30%; Degree of destruction/% after 6 days (Aphis gossypii [2]; [12]): 15% |
| COC1CCC2(CC1)NC(=O)C(c1c(C)cc(C)c(C)c1C)=C2O (stereo not shown) [Example I-1-a-9] |  |  |  |  |  |  |  |  | Degree of destruction/% after 6 days (Myzus persicae [3]; [11]): 5%; Degree of destruction/% after 6 days (Myzus persicae [3]; [13]): 35%; Degree of destruction/% after 6 days (Myzus persicae [3]; [14]): 75%; Degree of destruction/% after 6 days (Myzus persicae [3]; [12]): 0% |
| COC1CCC2(CC1)NC(=O)C(c1cc(C)c(Cl)cc1C)=C2O (stereo not shown) [Example I-1-a-10] | 65% | 20% | 75% | 40% | 35% | 75% | 85% | 0% | Degree of destruction/% after 6 days (Myzus persicae [1]; [5]): 35%; Degree of destruction/% after 6 days (Myzus persicae [1]; [6]): 0%; Degree of destruction/% after 6 days (Myzus persicae [1]; [7]): 85%; Degree of destruction/% after 6 days (Myzus persicae [1]; [8]): 40% |
| CO[C@H]1CC[C@]2(CC1)NC(=O)C(c1cc(C)ccc1C)=C2O [Example I-1-a-13] |  |  |  |  | 0% | 65% | 75% | 0% | Degree of destruction/% after 6 days (Myzus persicae [3]; [11]): 0%; Degree of destruction/% after 6 days (Myzus persicae [3]; [13]): 0%; Degree of destruction/% after 6 days (Myzus persicae [3]; [14]): 30%; Degree of destruction/% after 6 days (Myzus persicae [3]; [12]): 0% |
| COCC1CCC2(CC1)NC(=O)C(c1c(C)cc(C)cc1C)=C2O (stereo not shown) [Example I-1-a-14] | 90% | 55% |  |  |  |  |  |  | Degree of destruction/% after 6 days (Aphis gossypii [2]; [11]): 40%; Degree of destruction/% after 6 days (Aphis gossypii [2]; [12]): 25% |
| COCC1CCC2(CC1)NC(=O)C(c1c(C)cc(Cl)cc1C)=C2O (stereo not shown) [Example I-1-a-15] | 75% | 40% | 95% | 80% |  |  |  |  | Degree of destruction/% after 6 days (Myzus persicae [3]; [11]): 0%; Degree of destruction/% after 6 days (Myzus persicae [3]; [13]): 50%; Degree of destruction/% after 6 days (Myzus persicae [3]; [14]): 80%; Degree of destruction/% after 6 days (Myzus persicae [3]; [12]): 15% |
| COCC1CCC2(CC1)NC(=O)C(c1c(C)cc(Cl)cc1Cl)=C2O (stereo not shown) [Example I-1-a-16] | 75% | 40% | 85% | 75% |  |  |  |  | Degree of destruction/% after 6 days (Aphis gossypii [4]; [7]): 85%; Degree of destruction/% after 6 days (Aphis gossypii [4]; [15]): 95%; Degree of destruction/% after 6 days (Aphis gossypii [4]; [16]): 99%; Degree of destruction/% after 6 days (Aphis gossypii [4]; [8]): 75% |
| COCCC1CCC2(CC1)NC(=O)C(c1c(C)cc(C)cc1C)=C2O (stereo not shown) [Example I-1-a-17] | 80% | 50% | 85% | 70% |  |  |  |  |  |
| COCC1CCC2(CC1)NC(=O)C(c1cc(C)c(Cl)cc1C)=C2O (stereo not shown) [Example I-1-a-18] |  |  |  |  | 0% | 35% | 55% | 0% |  |
| CCOC(=O)OC1=C(c2c(C)cc(C)cc2C)C(=O)NC12CCC(COC)CC2 (stereo not shown) [Example I-1-c-2] |  |  |  |  |  |  |  |  | Degree of destruction/% after 6 days (Aphis gossypii [4]; [7]): 85%; Degree of destruction/% after 6 days (Aphis gossypii [4]; [15]): 90%; Degree of destruction/% after 6 days (Aphis gossypii [4]; [16]): 99%; Degree of destruction/% after 6 days (Aphis gossypii [4]; [8]): 85% |
